Results taken from publication PMC11951083, “Highly Specific Miniaturized Fluorescent Monoacylglycerol Lipase Probes Enable Translational Research” (Journal of the American Chemical Society, 2025).
≈ marks a conversion by molar mass, not a printed value. Where two headings read alike, the source gives them in different places.

Legend:
MAGL [1] = molecular target: T1, MAGL (Homo sapiens, UniProt Q99685); design: method as in earlier work; conditions: Table S2, literature compounds; ref (1), (6)-(12) as indicated per compound; cited from earlier work
T1 sequence (Q99685 1-303): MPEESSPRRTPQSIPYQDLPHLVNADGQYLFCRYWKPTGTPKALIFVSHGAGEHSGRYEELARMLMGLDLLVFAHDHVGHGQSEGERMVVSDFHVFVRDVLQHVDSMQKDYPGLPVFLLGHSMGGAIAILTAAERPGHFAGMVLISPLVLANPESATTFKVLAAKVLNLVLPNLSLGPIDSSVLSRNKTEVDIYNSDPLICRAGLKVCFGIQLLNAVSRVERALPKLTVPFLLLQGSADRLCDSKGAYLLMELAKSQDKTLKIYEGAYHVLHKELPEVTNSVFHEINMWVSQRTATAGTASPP

[2] = system: serine hydrolases in the mouse brain proteome (MBP); assay: Multiplex ABPP in mouse brain proteome; type: biochemical
Experimental: K = [L][P] = 0.5 [L]T (FP50 − 0.5 [L]T) = FP − 0.5 [L] […]
Mouse brain sample preparation
Mouse tissues were isolated according to guidelines approved by the ethical committee of Leiden University. Male mouse brain (27 weeks old) was homogenized with glass beads (2x 1 min, bullet blender, speed 8) using cold lysis buffer (20 mM Hepes pH 7.2, 1 mM MgCl 2, 2 U/mL Benzonase). The membrane and cytosol were separated by centrifugation. The membrane fraction was resuspended in Hepes/DTT buffer. Protein concentration was determined with Bradford Assay, and samples were diluted to a final concentration of 2.0 mg/mL. Samples were snap -frozen in liquid nitrogen and stored at -80 °C until further use.
Lysate (19 µL, 2 µg/µL) was thawed on ice. For comparative ABPP (irreversible probes), 1 µL of probe (20x stock in DMSO) or pure DMSO was added to the sample, vortexed briefly, and in cubated for 30 minutes at RT. For competitive ABPP (reversible probes), 0.5 µL of the reversible probe (40x stock in DMSO) or pure DMSO (as vehicle) was added to the sample, vortexed briefly, and incubated for 30 […]
minutes at RT. Subsequently, 0.5 µL MB064 (40x stock in DMSO) was added to the proteome sample, vortexed briefly, and incubated for 10 minutes at RT, after which 0.5 µL FP-Bodipy-FL (40x stock in DMSO) was added, vortexed briefly and incubated for 10 minutes at RT. The final volume was 20 - 20.5 µL (5 - 7.5% DMSO). The reaction was quenched by the addition of 7.5 µL of 4*Laemmli-buffer (final concentrations: 60 mM Tris (pH 6.8), 2% (w/v) SDS, 10% (v/v) glycerol, 1.25% (v/v) β-mercaptoethanol, 0.01% (v/v) bromophenol blue). 10 µL (14 µg protein) of the quenched reaction mixture was resolved on 10% acrylamide SDS-PAGE (180 V, 75 min). Fluorescence was measured using a Biorad ChemiDoc MP system (fluorescence channels Cy2, Cy3, Cy5). Gels were then stained using coomassie staining and imaged for protein loading control. Labeling of the respective proteins via MB064 and FP-BODIPY was visualized in two separate channels. […]
Activity based protein profiling (ABPP)
PBMCs were thawed, washed with 1 x PBS and equal amounts of cells were exposed to DMSO (D2650; Sigma-Aldrich) or MAGL inhibitor PF (PF-06795071) in DMSO for 30 min at room temperature with concentrations ranging from 1 nM to 1000 nM. Cells were washed with 1 x PBS and lysed in ice -cold lysis buffer (ab156035; Abcam), lysates were centrifuged at 14,000 x g for 15 minutes at 4°C and supernatants were collected. For ABPP experiments, cell lysates containing equal amounts of protein were incubated with the appropriate concentration of activity -based probe for 30 min at room temperature. The reaction was quenched for 30 min by adding SDS -PAGE loading buffer (NP0007, Thermo). Samples were then separated by SDS-PAGE and bands were detected ChemiDoc Imager (Bio-Rad Laboratories). Following detection, gels were stained with SimplyBlue™ SafeStain (LC6060, Thermo) for 1 hour with gentle agitation and excess stain was removed by destaining in ddH2O for 1 h with gentle agitation. Gels were imaged and protein bands were quantified using Image Lab software (Bio-Rad Laboratories).

rMAGL = molecular target: T2, rMAGL (Rattus norvegicus, UniProt Q8R431); assay: Native MS (RapidFire) 2-AG substrate assay, purified rat MAGL; type: biochemical; conditions: for loss of potency against rat or cynomolgus monkey orthologs: rat or cynomolgus monkey MAGL
T2 sequence (Q8R431 1-303): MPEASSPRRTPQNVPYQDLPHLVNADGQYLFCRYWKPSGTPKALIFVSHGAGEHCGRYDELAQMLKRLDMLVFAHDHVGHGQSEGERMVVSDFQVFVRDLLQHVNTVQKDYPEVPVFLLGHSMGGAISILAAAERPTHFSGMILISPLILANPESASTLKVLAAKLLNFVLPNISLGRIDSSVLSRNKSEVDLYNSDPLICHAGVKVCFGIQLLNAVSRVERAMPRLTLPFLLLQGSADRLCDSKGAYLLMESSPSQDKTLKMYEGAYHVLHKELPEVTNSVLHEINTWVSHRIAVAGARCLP
Experimental: (§1) In vitro MAGL Inhibition Assay
(§2) Compounds were profiled for MAGL inhibitory activity by determining the enzymatic activity by following the hydrolysis of the natural substrate 2-arachidonoylglycerol (2-AG), resulting in arachidonic acid, which can be followed by mass spectrometry. The 2-AG assay was carried out in 384 well assay plates (PP, Greiner Cat# 784201) in a total volume of 20 µL. Compound dilutions were made in 100% DMSO (VWR Chemicals 23500.297) in a polypropylene plate in 3-fold dilution steps to give a final concentration range in the assay from 12.5 µM to 0.8 pM. 0.25µL compound dilutions (100% DMSO) were added to 9 µL MAGL in assay buffer (50 mM TRIS (GIBCO, 15567-027), 1 mM EDTA (Fluka, 03690-100 mL), 0.01% (v/v) Tween. After shaking, the plate was incubated for 15 min at RT. To start the reaction, 10 µL 2-arachidonoylglycerol in assay buffer was added. The final concentrations in the assay were 50 pM MAGL and 8 µM 2-arachidonoylglyerol. After shaking and 30 min incubation at RT, the reaction was quenched by the addition of 40µL of ACN containing 4µM of d8-arachidonic acid. The amount of arachidonic acid was traced by an online SPE system (Agilent Rapidfire) coupled to a triple quadrupole mass spectrometer (Agilent 6460). A C18 SPE cartridge (G9205A) was used in an ACN/water liquid setup. The mass spectrometer was operated in negative electrospray mode following the mass transitions 303.1 → 259.1 for arachidonic acid and 311.1 → 267.0 for d8-arachidonic acid. The activity of the compounds was calculated based on the ratio of intensities [arachidonic acid / d8-arachidonic acid]. The lowest IC50 value that can be determined with high accuracy is approximately 0.025 nM.

mMAGL = molecular target: T3, mMAGL (Mus musculus, UniProt O35678); assay: Native MS (RapidFire) 2-AG substrate assay, purified mouse MAGL; type: biochemical; conditions: purified mouse MAGL, native MS substrate assay; read-out: IC50 mMAGL
T3 sequence (O35678 1-303): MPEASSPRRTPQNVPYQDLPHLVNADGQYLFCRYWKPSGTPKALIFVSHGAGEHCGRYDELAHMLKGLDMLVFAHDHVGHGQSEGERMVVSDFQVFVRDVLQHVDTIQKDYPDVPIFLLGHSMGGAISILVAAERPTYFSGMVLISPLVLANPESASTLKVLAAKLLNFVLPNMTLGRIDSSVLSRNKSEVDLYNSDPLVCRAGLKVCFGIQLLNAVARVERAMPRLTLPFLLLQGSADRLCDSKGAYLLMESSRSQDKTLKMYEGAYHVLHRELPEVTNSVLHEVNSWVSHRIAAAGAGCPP
Experimental: as §1, §2

MAGL [3] = molecular target: T1, MAGL; assay: Native MS (RapidFire) 2-AG substrate assay, purified human MAGL; type: biochemical; conditions: purified human MAGL, native MS substrate assay; IC50 of covalent inhibitors time-dependent; read-out: IC50 hMAGL
Experimental: as §1, §2

cMAGL = molecular target: T4, cMAGL (Macaca fascicularis, UniProt A0A2K5V664); assay: Native MS (RapidFire) 2-AG substrate assay, purified cynomolgus monkey MAGL; type: biochemical; conditions: purified cynomolgus monkey MAGL, native MS substrate assay; read-out: IC50 cMAGL
T4 sequence (A0A2K5V664 11-297): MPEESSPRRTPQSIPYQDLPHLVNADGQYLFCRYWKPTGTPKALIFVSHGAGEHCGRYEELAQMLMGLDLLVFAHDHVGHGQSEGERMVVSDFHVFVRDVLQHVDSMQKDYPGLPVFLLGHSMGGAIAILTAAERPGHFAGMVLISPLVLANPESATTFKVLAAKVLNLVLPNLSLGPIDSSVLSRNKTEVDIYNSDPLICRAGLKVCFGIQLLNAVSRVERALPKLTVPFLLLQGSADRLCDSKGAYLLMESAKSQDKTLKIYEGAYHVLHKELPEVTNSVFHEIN
Experimental: as §1, §2

[4] = High throughput kinetic solubility measurement; type: physicochemical; conditions: phosphate buffer, pH 6.5, aqueous buffer, kinetic from dmso stock
rat MAGL = conditions: cited from earlier work
[5] = molecular target: T5, NanoLuc luciferase MAGL fusion protein (Homo sapiens, UniProt Q99685); assay: Cellular MAGL NanoBRET target engagement assay in live HEK293 cells; type: cell-based; conditions: live HEK293 cells; read-out: IC50 nanoBRET
T5 sequence (Q99685 1-303): T1 sequence (Q99685 1-303)
Experimental: This assay was performed as first described before.20
Compounds were profiled by a novel cellular MAGL NanoBRET™ Target Engagement assay, which measures the apparent affinity of test compounds by competitive displacement of a Roche -developed Tracer (WO2021058443, Example 2 121, or probe 4a, respectively), reversibly bound to a NanoLuc ® luciferase MAGL fusion protein in cells.
A HEK293A stable cell line expressing NanoLuc_MAGL was established at Roche and assigned as HEK293A_NanoLuc_MAGL clone #43. A fixed concentration of tracer is added to cells expressing the NanoLuc®_MAGL fusion protein to generate a BRET reporter complex. The introduction of competing compounds results in a dose -dependent decrease in NanoBRET™ energy transfer, which allows quantification of the intracellular affinity of the target protein for the test compound.
HEK293A_NanoLuc_MAGL clone #43 cells were cultured in DMEM (Gibco 31966) with 10% FBS and 800 ug/ml G418. The NanoBRET assay was performed by seeding 5000 cells/well in Costar low - volume white 384-well plate in assay buffer (1% FBS in HBSS), followed by adding the tracer (50 nM Example 21 or 100 nM 4a final concentration) and serial dilutions of test compounds. After 2 hours of incubation, Nanoluciferase substrates and extracellular inhibitors were added following the manufacturer's protocol (Promega, #N2520), and the NanoBRET signaling were quantified with the Paradigm (Molecular Devices).

[6] = purified rat MAGL, native MS substrate assay, read-out: IC50 rMAGL

| SMILES | IC50 (MAGL [1]) | labeling selectivity in ABPP (covalent probes) ([2]; mouse brain homogenates, broad range of concentrations) | IC50 (rMAGL; [6]) | IC50 (mMAGL) | IC50 (MAGL [3]) | IC50 (cMAGL) | solubility kinetic [4] | potency on rat MAGL (rat MAGL) | selectivity in competitive ABPP (reversible probes) ([2]; mouse brain proteome, membrane and cytosolic fraction, 1 μM) | loss of potency against rat or cynomolgus monkey orthologs (rMAGL) | IC50 (rMAGL; SI Table 1, read-out: IC50 against purified MAGL ± SEM, Rat) | IC50 [5] |
| --- | --- | --- | --- | --- | --- | --- | --- | --- | --- | --- | --- | --- |
| CN1/C(=C/C=C/C=C/C2=[N+](CCCCCC(=O)NCc3cn(CCOc4ccc(C(c5ccc(Cl)cc5)N5CCN(C(=O)OC(C(F)(F)F)C(F)(F)F)CC5)cc4)nn3)c3ccccc3C2(C)C)C(C)(C)c2ccccc21 (stereo not shown) [LEI-463] | ~10 nM | – | – | – | – | – | – | – | – | – | – | – |
| O=C(O[C@H](CO)C(F)(F)F)N1CC2(CC(CC3=C4C=CC(c5ccc[nH]5)=[N+]4[B-](F)(F)n4cccc43)C2)C1 [Compound 1a] | – | only selective irreversible labeling of the two MAGL isoforms | 0.44 nM | 0.31 nM | 0.47 nM | 0.4 nM | < 1 µg/mL | – | – | – | – | – |
| O=C(Oc1ccc([N+](=O)[O-])cc1)N1CCC(C(O)(c2ccc3c(c2)OCO3)c2ccc3c(c2)OCO3)CC1 [JZL-184] | – | – | – | – | – | – | – | severely reduced potency | – | – | – | – |
| O=C(N1CC2(CC(CC3=C4C=CC(c5ccc[nH]5)=[N+]4[B-](F)(F)n4cccc43)C2)C1)N1CC2(CC(n3cnc(C4CC4)n3)C2)C1 [Compound 5a] | – | – | 2.23 nM | 0.9 nM | 0.73 nM | 0.77 nM | < 0.1 µg/mL | – | no other potential off-target detectable | less than 4 fold | – | – |
| O=C1NC2(CO1)CN(C(=O)N1CC3(CCC(CC4=C5C=CC=[N+]5[B-](F)(F)n5cccc54)CC3)C1)C2 [Compound 3] | – | – | – | 0.96 nM | 0.83 nM | 3.86 nM | 139 µg/mL (≈ 288 µM) | – | – | less than 4 fold | 3.54 ± 0.37 nM | 557 nM |
